Test results from patent US8759532B2, “Pyridine and pyrimidine derivatives as phosphodiesterase 10 inhibitors” (AMGEN Inc., priority 2008, dated 2014).

Biological target: PDE10 (Mus musculus, UniProt Q8CA95)
Assay: PDE10 enzyme inhibition, IMAP TR-FRET assay
Assay type: biochemical
Description: MPDE10A7 Enzyme Activity and Inhibition
An IMAP TR-FRET assay was used to analyze the enzyme activity (Molecular Devices Corp., Sunnyvale Calif.). 5 μL of serial diluted PDE10A (BPS Bioscience, San Diego, Calif.) or tissue homogenate was incubated with equal volumes of diluted fluorescein labeled cAMP or cGMP for 60 min in 384-well polystyrene assay plates (Corning, Corning, N.Y.) at room temperature. After incubation, the reaction was stopped by adding 60 μL of diluted binding reagents and was incubated for 3 hours to overnight at room temperature. The plates were read on an Envision (Perkin Elmer, Waltham, Mass.) for time resolved fluorescence resonance energy transfer. The data were analyzed with GraphPad Prism (La Jolla, Calif.).
To check the inhibition profile, 5 μL of serial diluted compounds were incubated with 5 μL of diluted PDE10 enzyme (BPS Bioscience, San Diego, Calif.) or tissue homogenate in a 384-well polystyrene assay plate (Corning, Corning, N.Y.) for 30 min at room temperature. After incubation, 10 μL of diluted fluorescein labeled cAMP or cGMP substrate were added and incubated for 60 min at room temperature. The reaction was stopped by adding 60 μL of diluted binding reagents and plates were read on an Envision (Perkin Elmer, Waltham, Mass.) for time resolved fluorescence resonance energy transfer. The data were analyzed with GraphPad Prism (La Jolla, Calif.).
The tabulated IC50 data represent an average IC50 data for each compound.

PDE10, sequence (Q8CA95 whole entry, looked up): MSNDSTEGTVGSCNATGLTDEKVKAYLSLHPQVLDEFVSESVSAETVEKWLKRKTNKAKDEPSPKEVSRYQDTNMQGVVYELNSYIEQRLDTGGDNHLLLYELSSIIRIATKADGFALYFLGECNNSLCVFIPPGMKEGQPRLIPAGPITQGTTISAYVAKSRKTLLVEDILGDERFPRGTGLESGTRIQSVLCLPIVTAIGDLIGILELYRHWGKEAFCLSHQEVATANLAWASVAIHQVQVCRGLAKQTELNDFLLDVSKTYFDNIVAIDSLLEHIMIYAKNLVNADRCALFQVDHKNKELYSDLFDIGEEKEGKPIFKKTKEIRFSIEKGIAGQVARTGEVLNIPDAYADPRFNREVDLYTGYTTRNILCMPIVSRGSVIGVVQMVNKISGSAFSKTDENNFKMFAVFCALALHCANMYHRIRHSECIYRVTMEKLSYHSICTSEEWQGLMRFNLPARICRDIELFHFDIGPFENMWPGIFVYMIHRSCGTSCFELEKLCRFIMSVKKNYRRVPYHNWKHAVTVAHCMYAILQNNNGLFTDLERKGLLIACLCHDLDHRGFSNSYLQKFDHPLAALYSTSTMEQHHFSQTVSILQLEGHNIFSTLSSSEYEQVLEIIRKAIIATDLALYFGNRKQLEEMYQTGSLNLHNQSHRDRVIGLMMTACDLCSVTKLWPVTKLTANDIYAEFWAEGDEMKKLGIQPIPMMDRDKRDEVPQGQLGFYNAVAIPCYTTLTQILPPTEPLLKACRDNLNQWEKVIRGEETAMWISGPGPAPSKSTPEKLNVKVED

Question: Which IC50 (IC50 class against PDE10, Table IA) does the source give for `FC(F)(F)c1cc(-c2cccnc2Oc2ccc(Cc3nc4ccccc4[nH]3)cc2)ccn1` [Example 62, 2-(4-(2′-(trifluoromethyl)-3,4′-bipyriidn-2-yloxy)benzyl)-1H-benzo[d]imidazole] here?
Answer: 100 to 250 nM

Question: How did the IC50 (IC50 class against PDE10, Table IIA) turn out when `COc1cnccc1-c1cccnc1Oc1ccc(Nc2nc3ccccc3s2)cc1` [Example 165, N-(4-(3′-methoxy-3,4′-bipyriidn-2-yloxy)phenyl)benzo[d]thiazol-2-amine] was run?
Answer: < 25 nM

Question: How did the IC50 (IC50 class against PDE10, printed at end of example text) turn out when “(R)-4-(2-(4-(1H-benzo[d]imidazole-2-carbonyl)phenoxy)pyridin-3-yl)-1-methylpyrrolidin-2-one and (S)-4-(2-(4-(1H-benzo[d]imidazole-2-carbonyl)phenoxy)pyridin-3-yl)-1-methylpyrrolidin-2-one [Example 209]” was run?
Answer: < 25 nM
